Laboratory results published in US5795861A, “Methods for regulating gastrointestinal motility” (Amylin Pharmaceuticals Inc., priority 1995, dated 1998).
No end group written: not given here.

Legend:
anesthetized rats [1] = experiment: perfused exteriorized small bowel, passage of tritium-labelled glucose into plasma; type: in vivo, rat; details: plasma glucose clamped
Text: (§1) After one hour of amylin infusion, a bolus of glucose (lg/kg) was infused either into the stomach or the duodenum through a tube inserted through the esophagus. Because-the studies involved anesthetized rather than conscious rats, they are not considered in analyzing gastric motility, e.g., rate of emptying of stomach contents into the duodenum. However, the studies indicate that absorption of glucose from the duodenum into the blood was not delayed by amylin. […] In anesthetized rats, a segment of small bowel, still connected to the animal via its blood supply, was exteriorized and cannulae inserted so that the small bowel could be perfused with glucosed solutions of controlled composition. The animals were cannulated also via an artery (for blood sampling) and via a vein (for infusion of amylin, insulin and glucose). The lumen was perfused with a tritium-labelled glucose solution. The passage of glucose from the lumen of the gut into the rat was measured by the appearance of the tritium label in the plasma. The supposition that such appearance of tritium in the plasma was indeed measuring glucose uptake from the gut was tested by administration of the glucose transport blocker, phloridzin. […]

Mongrel dogs = experiment: oral glucose tolerance test in dogs during amylin ± AC-0253 infusion; type: in vivo; details: for effects on plasma lactate: oral glucose load
Description: Mongrel dogs (9 males, 12-17 kg wt. range) were used for this study. All animals were fasted overnight prior to each study. Each animal served as its own control for all protocols. Animals were equilibrated for 30-60 minutes prior to the start of each protocol.
25% glucose (1 gm/kg) was administered by mouth at t=0 minutes. […] Samples for insulin, glucose and lactate were obtained at 15 minute intervals from t=-45 to t=180 minutes.

[2] = tested on: non-diabetic Harlan Sprague Dawley rats; experiment: gastric emptying of Phenol Red methylcellulose gel, normal rats; type: in vivo, rat; details: for ED50, suppression of gastric emptying: normal rats fasted 20 hours, s.c. 5 min before gavage
Text: (§2) Twenty minutes after gavage, rats were anesthetized using 5% halothane, the stomach exposed and clamped at the pyloric and lower esophageal sphincters using artery forceps, removed and opened into an alkaline solution which was made up to a fixed volume. Stomach content was derived from the intensity of the phenol red in the alkaline solution, measured by absorbance at a wavelength of 560 nm. In most experiments, the stomach was clear. In other experiments, particulate gastric contents were centrifuged to clear the solution for absorbance measurements. Where the diluted gastric contents remained turbid, the spectroscopic absorbance due to Phenol Red was derived as the difference between that present in alkaline vs acidified diluent. In separate experiments on 7 rats, the stomach and small intestine were both excised and opened into an alkaline solution. The quantity of phenol red that could be recovered from the upper gastrointestinal tract within 20 minutes of gavage was 89±4%. To account for a maximal dye recovery of less than 100%, stomach contents remaining after 20 min were expressed as a fraction of the gastric contents recovered from control rats sacrificed immediately after gavage in the same experiment.
Since ED50 is log-normally distributed, it is expressed i standard error of the logarithm. Pairwise comparisons were performed using one-way analysis of variance and the Student-Newman-Keuls multiple comparisons test (Instat v2.0, GraphPad Software, San Diego) using P<0.05 as the level of significance.

diabetic BB rats = experiment: gastric emptying of Phenol Red methylcellulose gel, diabetic rats; type: in vivo, rat; details: for ED50 for suppression of gastric emptying: diabetic rats fasted 6 hours, s.c. 5 min before gavage
Description: When BB rats were confirmed as being diabetic by glycosuria on at least 2 days, they were treated with daily s.c. injections of ultralente recombinant human insulin (Humulin-U, Eli Lilly, Ind.). Insulin therapy was aimed at maintaining glucose but minimizing ketones in the urine, in order to avoid hypoglycemic deaths. In fact, glycosuria was present in 88% of measurements and ketonuria in 52%. The average duration of diabetes was 53±5 days, and daily insulin requirements were 4.7±0.3 units. All animals were housed at 22.7±0.8 C in a 12:12 hour light:dark cycle (experiments being performed during the light cycle) and were fed and watered ad libitum (Diet LM-485, Teklad, Madison, Wis.).
The determination of gastric emptying by the method described below has usually been performed after a fast of ~20 hours to ensure that the stomach contained no chyme that would interfere with spectrophotometric absorbance measurements. However, diabetic rats treated with Ultralente insulin could not be fasted for 20 hours. […] Such animals were therefore. fasted for only 6 hours before measurement of gastric emptying. Non-diabetic rats were deprived of food for either 6 or 20 hours prior to experimentation. We have noted that even non-diabetic BB rats have elevated glycated hemoglobin concentrations, possibly indicating subclinical insulitis. Both non-diabetic Harlan Sprague Dawley rats and non-diabetic BB rats animals were therefore used in comparisons with diabetic rats. Thus there were 5 treatment groups:
as §2, with “experiment. […]” for “experiment.”

[3] = plasma amylin concentration after subcutaneous rat amylin (immuno-enzymometric assay); type: in vivo; details: sc
Description: The plasma from 250 μL samples collected at 10 min intervals was separated and frozen at -20° C. for analysis by a 2-site immuno-enzymometric assay developed in-house.
To perform the immunoassay, black microtiter plates (Dynatech, Chantilly, Va.) were coated with the antibody F024-4.4 [Phelps J L, Blase E, Koda J E, unpublished] by overnight incubation at 4° C. with 20 ug antibody per mL in 50 mM carbonate at pH 9.6. Plates were washed with 0.05M Tris/0.15M sodium chloride/0.02% sodium azide/0.1% Tween 20 (TBS/Tween), and blocked with 1.0% nonfat dry milk powder in the same carbonate buffer for one hour at room temperature. Samples were thawed on ice, and diluted in 4% BSA/200mg/dl bovine cholesterol supertrate (Miles Pentex reagents, Miles Laboratories, Kankakee Ill.) if necessary. Samples or standards were added to the coated and blocked plates and incubated for one hour at room temperature. After washing, the F025-27 detection antibody conjugated to alkaline phosphatase was added. Antibody-enzyme coupling was performed using the maleimide alkaline phosphatase conjugation kit from Pierce Immunochemical Co (Rockford Ill.). The conjugate was incubated for three hours at room temperature, after which plates were washed thoroughly with Tris buffered saline. Bound enzyme was detected by incubation of the plates with the fluorescent substrate 4-methylumbelliferyl phosphate at 50 ug/ml in 1M diethanolamine/0.5 mM MgCl, pH 9.8 for 40 minutes at room temperature. The fluorescent signal was measured with a Dynatech Microfluor plate reader, and data analyzed on Multicalc software (Wallac, Gaithersburg Md.). […] When performed in this manner, the assay has a minimum detectable concentration of 2 pM.

anesthetized rats [4] = experiment: glucose bolus into stomach or duodenum during amylin infusion; type: in vivo; details: rat amylin 0.35 nm/kg/min infusion
Text: as §1

intact rats = details: given subcutaneously, no disturbance of blood pressure
[5] = tested on: rats, rabbits, humans with Paget's disease; details: cited from earlier work
fed rats = details: preinfusion of antagonist; cited from earlier work
corpulent LA/N rats = experiment: uptake of ingested labelled glucose load after amylin antagonist preinjection; type: in vivo, rat; details: for acceleration of appearance of glucose-derived tritium in the plasma: 3 μg s.c. 3 minutes before gavage
Description: Uptake of an ingested labelled glucose load was measured in 11 conscious 24-hr fasted corpulent (500-600 g) LA/N rats on 2 occasions, 14 days apart.

[6] = tested on: motility of the gastro-intestinal tract; details: 0.2 to 2 mgs intravenously; cited from earlier work

For `O=C(CCc1ccc(O)cc1)c1c(O)cc(O)cc1O[C@@H]1O[C@H](CO)[C@@H](O)[C@H](O)[C@H]1O` [Phloridzin, reference compound], the “passage of tritium-labelled glucose from the gut lumen into the plasma” value (anesthetized rats [1]) was “largely prevented the transit of label from the gut lumen into the plasma”.

For `CC(C)C[C@H](NC(=O)[C@H](CC(N)=O)NC(=O)[C@H](CC(N)=O)NC(=O)[C@H](CO)NC(=O)[C@H](CO)NC(=O)[C@H](CCCNC(=N)N)NC(=O)[C@@H](NC(=O)[C@H](CC(C)C)NC(=O)[C@H](Cc1ccccc1)NC(=O)[C@H](CC(N)=O)NC(=O)[C@H](C)NC(=O)[C@H](CC(C)C)NC(=O)[C@H](CCCNC(=N)N)NC(=O)[C@H](CCC(N)=O)NC(=O)[C@@H](NC(=O)[C@H](C)NC(=O)[C@@H]1CSSC[C@H](NC(=O)[C@@H](N)CCCCN)C(=O)N[C@@H](CC(N)=O)C(=O)N[C@@H]([C@@H](C)O)C(=O)N[C@@H](C)C(=O)N[C@@H]([C@@H](C)O)C(=O)N1)[C@@H](C)O)C(C)C)C(=O)NCC(=O)N1CCC[C@H]1C(=O)N[C@H](C(=O)N[C@@H](CC(C)C)C(=O)N1CCC[C@H]1C(=O)N1CCC[C@H]1C(=O)N[C@H](C(=O)N[C@@H](CC(N)=O)C(=O)N[C@H](C(=O)NCC(=O)N[C@@H](CO)C(=O)N[C@@H](CC(N)=O)C(=O)N[C@H](C(=O)N[C@@H](Cc1ccc(O)cc1)C(N)=O)[C@@H](C)O)C(C)C)[C@@H](C)O)C(C)C` [amylin], the “rate of rise and peak of plasma glucose after oral glucose load” value (Mongrel dogs; amylin infusion 50, 100 and 300 pmol/kg/min, 25% glucose 1 gm/kg by mouth) was “reduced both the rate of rise in plasma glucose as well as the peak plasma glucose”, the “effects on plasma lactate” value (Mongrel dogs) was “unremarkable” and the “ED50 of inhibition of gastric emptying (summary statement)” value ([2]; normal rats) was ~ 1 μg. The “ED50, suppression of gastric emptying” value [2] was 0.60 nmole amylin/kg body weight, the “ED50, suppression of gastric emptying” value ([2]; ±0.19 log units) was 0.43 µg and the “dose that would restore gastric emptying to the rate of normal rats not administered amylin” value (diabetic BB rats; diabetic rat, estimated from fitted curves of FIG. 14) was ~ 2 μg. The “ED50 of inhibition of gastric emptying (summary statement)” value (diabetic BB rats; diabetic rats) was ~ 1 μg, the “ED50 for suppression of gastric emptying” value (diabetic BB rats) was 2.3 nmol/kg and the “ED50 for suppression of gastric emptying” value (diabetic BB rats; ±0.18 log units) was 2.2 µg. The level at time molar at 10 min ([3]; 1 ug, 1 μg s.c.) was 0.066 ± 0.01 nM, the level at time molar at 10 min ([3]; 10 ug, 10 μg s.c. bolus) was 0.347 ± 0.043 nM and the level at time molar at 20 min ([3]; 10 ug, 10 μg s.c. bolus, 20 min) was 0.301 ± 0.057 nM. For the same molecule, the “absorption of glucose from the duodenum into the blood” value (anesthetized rats [4]) was “not delayed”, the “passage of tritium-labelled glucose from the gut lumen into the plasma” value (anesthetized rats [1]) was “had no effect” and the plasma renin activity (intact rats) was “markedly increases”. The “lowering of plasma calcium” value [5] was “up to 20%”.

In the case of “^8-37 hCGRP: demonstrated amylin blocker in vitro and in vivo; also an effective CGRP antagonist (VTHRLAGLLSRSGGVVKNFVPTNVGSKAF)”, the “glucose concentration following arginine infusion” value (fed rats) is listed as “subsequent fall in glucose concentration to well below the basal level” and the “insulin concentration 30 minutes following the arginine infusion vs normal controls” value (fed rats) is listed as “almost twice as high”.

With “acetyl-^10 Asn^32 Tyr^8-32 salmon calcitonin (Ac-VLNKLSQELHKLQTYPRTNTGSGTY; ends and bridges not checked) [AC-0187]” the “plasma glucose 60 minutes after glucose gavage” value (corpulent LA/N rats; 3 μg s.c.) was 6.89 ± 0.28 mM, the “acceleration of appearance of glucose-derived tritium in the plasma” value (corpulent LA/N rats; 15 minutes post-gavage) was 48% and the “acceleration of appearance of glucose-derived tritium in the plasma” value (corpulent LA/N rats; 30 minutes post-gavage) was 45%. The “plasma glucose 15 minutes after gavage” value (corpulent LA/N rats; 3 μg s.c., gavage with 0.5 g glucose) was 8.33 ± 0.28 mM and the “plasma glucose before gavage” value (corpulent LA/N rats; 3 μg s.c., starting value) was 5.89 ± 0.17 mM.

With “acetyl-^11,18 Arg, ^30 Arg, ^32 Tyr-^9-32 calcitonin (salmon) [AC-0253]” the “changes in plasma glucose, antagonist alone” value (Mongrel dogs; AC-0253 alone) was “has no effect”, the “reversal of amylin-induced changes in plasma glucose” value (Mongrel dogs; AC-0253 up to 1500 pmol/kg/min with amylin 50 pmol/kg/min) was “does not completely reverse the effects of amylin” and the “effects on plasma lactate” value (Mongrel dogs) was “unremarkable”.

For “glucagon: polypeptide hormone produced by the alpha cells of the pancreatic islets; administered as glucagon hydrochloride”, the onset of effect [6] is given as “within one minute”.
